Assay results: patent US8921370B2, “Bicyclo[3.2.1]octyl amide derivatives and uses of same” (H. Lundbeck A/S, priority 2010, dated 2014)

How the values were obtained:
hmGluR5 [1] = molecular target: T1, hmGluR5 (Homo sapiens (Human), UniProt P41594); experiment: Radioligand binding assay (MPEP binding site); conditions: radioligand binding to the MPEP site, 5 nM radioligand; Ki by Cheng-Prusoff
Experimental: Binding assays were performed as described in [J. A. O'Brien et al. Mol. Pharmacol., 2003, 64, 731-740] with slight modifications, including that a radioligand that binds to the […] (MPEP) binding site was used in place of [^3H]-MPEP. Briefly, after thawing, the membrane homogenates were resuspended in 50 mM Tris-HCl and 0.9% NaCl binding buffer at pH 7.4 to a final assay concentration of 20 μg is protein/well for radioligand filtration binding. Incubations included 5 nM radioligand, membranes and either buffer or varying concentrations of compound. Samples were incubated for 60 min at room temperature with shaking. Non-specific binding was defined with 10 μM cold MPEP when using the radioligand. After incubation, samples were filtered over a GF/C filter (presoaked in 0.25% polyethyleneimine (PEI)) and then washed 4 times using a Tomtec® Harvester 96® Mach III cell harvester (Tomtec, Hamden, Conn.) with 0.5 mL ice-cold 50 mM Tris-HCl (pH 7.4). IC50 values were derived from the inhibition curve and Ki values were calculated according to the Cheng and Prusoff equation of Ki=IC50/(1+[L]/Kd) described in [Y. Cheng and W. H. Prusoff Biochem. Pharmacol. 1973, 22, 3099-3108] where [L] is the concentration of radioligand and Kd is its dissociation constant at the receptor, derived from the saturation isotherm. The Ki values of compounds of the invention were <10 μM.

hmGluR5 [2] = molecular target: T1, hmGluR5; experiment: Calcium mobilization assay (FLIPR), negative allosteric activity, EC80 glutamate; format: cell-based; conditions: HEK 293 cells expressing hmGluR5; for Emax: HEK293, FLIPR maximum inhibition of EC80 glutamate response, read-out: hmGlu5 FLIPR % inhibition; for IC50: inhibition of EC80 glutamate response
Experimental: The cDNA for rat metabotropic glutamate receptor 5 (rmGluR5) and the cDNA for human metabotropic glutamate receptor 5 […] gifts from S. Nakanishi (Kyoto University, Kyoto, Japan). […] Twenty-four hours prior to assay, cells were seeded into 384-well black wall microtiter plates coated with poly-D-lysine. […] After excess dye was discarded, cells were washed in assay buffer and layered with a final volume equal to 30 μL/well. […] Laser excitation energy was adjusted so that basal fluorescence readings were approximately 10,000 relative fluorescent units. […] Basal readings derived from negative controls were subtracted from all samples. Maximum change in fluorescence was calculated for each well. Concentration-response curves derived from the maximum change in fluorescence were analyzed by nonlinear regression (Hill equation). A negative modulator can be identified from these concentration-response curves if a compound produces a concentration dependent inhibition of the EC80 glutamate response.

T1 sequence (P41594 21-1212): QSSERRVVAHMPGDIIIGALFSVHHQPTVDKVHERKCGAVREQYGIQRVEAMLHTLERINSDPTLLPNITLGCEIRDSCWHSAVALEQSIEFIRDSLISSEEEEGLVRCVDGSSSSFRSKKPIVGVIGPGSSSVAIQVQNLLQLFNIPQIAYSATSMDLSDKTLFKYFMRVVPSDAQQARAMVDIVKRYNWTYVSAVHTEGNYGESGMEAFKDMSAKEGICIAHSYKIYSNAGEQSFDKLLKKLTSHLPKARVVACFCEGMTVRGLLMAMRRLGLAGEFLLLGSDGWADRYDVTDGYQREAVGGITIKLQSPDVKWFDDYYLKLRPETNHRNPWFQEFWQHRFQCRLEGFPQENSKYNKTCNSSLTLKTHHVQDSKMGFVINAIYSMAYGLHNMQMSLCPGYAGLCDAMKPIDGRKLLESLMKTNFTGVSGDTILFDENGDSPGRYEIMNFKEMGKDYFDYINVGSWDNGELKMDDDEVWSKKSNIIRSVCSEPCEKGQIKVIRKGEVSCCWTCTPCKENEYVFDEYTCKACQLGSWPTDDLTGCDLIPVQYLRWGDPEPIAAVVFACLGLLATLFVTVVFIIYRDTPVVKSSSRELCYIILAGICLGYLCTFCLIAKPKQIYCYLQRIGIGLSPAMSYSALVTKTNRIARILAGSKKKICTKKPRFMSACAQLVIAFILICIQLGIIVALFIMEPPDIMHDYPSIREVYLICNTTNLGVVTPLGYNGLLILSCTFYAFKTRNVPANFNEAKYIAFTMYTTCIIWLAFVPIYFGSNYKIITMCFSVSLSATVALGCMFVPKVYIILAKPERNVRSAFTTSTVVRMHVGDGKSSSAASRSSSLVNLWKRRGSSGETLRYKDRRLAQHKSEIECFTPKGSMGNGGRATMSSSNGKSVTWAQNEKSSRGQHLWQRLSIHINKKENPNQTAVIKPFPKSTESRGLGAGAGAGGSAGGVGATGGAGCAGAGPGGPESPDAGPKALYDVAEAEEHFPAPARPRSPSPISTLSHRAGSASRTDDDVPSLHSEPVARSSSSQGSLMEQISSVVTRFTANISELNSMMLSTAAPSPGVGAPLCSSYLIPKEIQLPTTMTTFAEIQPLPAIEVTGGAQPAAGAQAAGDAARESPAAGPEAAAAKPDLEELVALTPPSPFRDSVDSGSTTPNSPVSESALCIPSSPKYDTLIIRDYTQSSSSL

Row | Compound | Ki (hmGluR5 [1]) | Emax (hmGluR5 [2]) | IC50 (hmGluR5 [2])
1 | Cc1cccc(C(=O)N[C@@]23CCC[C@@](NC(=O)c4ccccn4)(CC2)C3)n1 [Example 126, 6-Methyl-pyridine-2-carboxylic acid {(1S,5R)-5-[(pyridine-2-carbonyl)-amino]-bicyclo[3.2.1]oct-1-yl}-amide] | 39 nM | 86% | 0.32 nM
2 | Cc1cncc(C(=O)N[C@]23CCC[C@](NC(=O)c4cccc(F)c4)(CC2)C3)n1 [Example 160, 6-Methyl-pyrazine-2-carboxylic acid [(1R,5S)-5-(3-fluoro-benzoylamino)-bicyclo[3.2.1]oct-1-yl]-amide] | 35 nM | 89% | 3.9 nM
3 | Cc1cccc(NC(=O)C23CCCC(NC(=O)c4cccc(Cl)c4)(CC2)C3)n1 (stereo not drawn) [Example 176, 5-(3-chlorobenzamido)-N-(6-methylpyridin-2-yl)bicyclo[3.2.1]octane-1-carboxamide] | 500 nM | 91% | 33 nM
4 | Cc1cncc(C(=O)NC23CCCC(NC(=O)c4cccc(F)c4)(CC2)C3)n1 (stereo not drawn) [Example 6, 6-Methyl-pyrazine-2-carboxylic acid [5-(3-fluoro-benzoylamino)-bicyclo[3.2.1]oct-1-yl]-amide] | 78 nM | 92% | 9 nM
5 | Cc1ncc(C(=O)NC23CCCC(NC(=O)c4cccc(Cl)c4)(CC2)C3)s1 (stereo not drawn) [Example 15, N-(5-(3-chlorobenzamido)bicyclo[3.2.1]octan-1-yl)-2-methylthiazole-5-carboxamide] | 340 nM | 88% | 26 nM
6 | Cc1cncc(C(=O)N[C@@]23CCC[C@@](NC(=O)c4cccc(F)c4)(CC2)C3)n1 [Example 161, 6-Methyl-pyrazine-2-carboxylic acid [(1S,5R)-5-(3-fluoro-benzoylamino)-bicyclo[3.2.1]oct-1-yl]-amide] | 1200 nM | 90% | 134 nM
7 | Cc1cccc(C(=O)NC23CCCC(NC(=O)c4ccncc4)(CC2)C3)c1 (stereo not drawn) [Example 36, N-(5-(3-methylbenzamido)bicyclo[3.2.1]octan-1-yl)isonicotinamide] | 280 nM | 87% | 35 nM
8 | Cc1cccc(C(=O)NC23CCCC(NC(=O)c4cccc(Cl)c4)(CC2)C3)n1 (stereo not drawn) [Example 2, N-(5-(3-chlorobenzamido)bicyclo[3.2.1]octan-1-yl)-6-methylpicolinamide] | 27 nM | 89% | 3.7 nM
9 | Cc1cccc(NC(=O)C23CCCC(NC(=O)c4nc(C)cs4)(CC2)C3)n1 (stereo not drawn) [Example 171, 4-methyl-N-(5-(6-methylpyridin-2-ylcarbamoyl)bicyclo[3.2.1]octan-1-yl)thiazole-2-carboxamide] | 65 nM | 94% | 4.7 nM
10 | Cc1cccc(C(=O)NC23CCCC(C(=O)Nc4ccnc(C)n4)(CC2)C3)n1 (stereo not drawn) [Example 178, 6-methyl-N-(5-(2-methylpyrimidin-4-ylcarbamoyl)bicyclo[3.2.1]octan-1-yl)picolinamide] | 370 nM | 90% | 38 nM
